Assay results as given in US20240336572A1, “SUBSTITUTED INDAZOLE PROPIONIC ACID DERIVATIVE COMPOUNDS AND USES THEREOF” (Pfizer Inc., priority 2023, published 2024).

Tests used:
AMPK 111 = biological target: T1, AMPK 111 (Homo sapiens, UniProt Q13131+Q9Y478); experiment: Biochemical profiling of AMPK activators by AMPK111 (HTRF/TR-FRET assay, SAMS peptide, PP2A dephosphorylation protection); conditions: for EC50: phosphorylated AMPK 111 (α1β1δ1 as printed), 11 point dilution, duplicate, 4-parameter fit; for Emax: phosphorylated AMPK 111, maximal activation
T1 construct: open reading frames encoding the full-length α1, β1 and δ1 subunits of human AMPK; made in house; host or cells: E. coli BL21-CodonPlus (DE3)-RIPL, pET-14b
Experimental: (§1) The biochemical EC50 (half-maximal concentration required for full activation) of compounds for the activation of AMPK was evaluated by HTRF assay using LANCE Ultra ULight-Acetyl-CoA Carboxylase (SAMS) peptide (commercially available, Perkin Elmer catalog TRF0133-M).
Following a fifteen-minute room temperature incubation, 5 μL of 30 nM protein phosphatase PP2A (isolation detailed above) diluted in the assay buffer was added to the plate, to dephosphorylate pThr172 of AMPK. […] The reaction was terminated after 60 minutes incubation at room temperature, by the addition of 5 μL of stop and detection cocktail, which consisted of 1× Perkin Elmer Lance buffer (Perkin Elmer catalog number CR97-100), 40 mM EDTA (Thermo Fisher catalog number BP2482-100), and 2 nM Eu-anti-Acetyl CoA Carboxylase [pSer70] antibody (Perkin Elmer, TRF0208-M).

AMPK 221 = biological target: T2, AMPK 221 (Homo sapiens, UniProt O43741+P54646); experiment: Biochemical profiling of AMPK activators by AMPK221 (HTRF/TR-FRET assay, SAMS peptide, PP2A dephosphorylation protection); conditions: for EC50: phosphorylated AMPK 221 (α2β2δ1), 11 point dilution, duplicate, 4-parameter fit; for Emax: phosphorylated AMPK 221, maximal activation
T2 construct: open reading frames encoding the full-length α2, β2 and δ1 subunits of human AMPK; made in house; host or cells: E. coli BL21-CodonPlus (DE3)-RIPL, pET-14b
Experimental: as §1
The reaction was terminated after 60 minutes incubation at room temperature by the addition of 5 μL of stop and detection cocktail, which consisted of 1× Perkin Elmer Lance buffer (Perkin Elmer catalog number CR97-100), 40 mM EDTA (Thermo Fisher catalog number BP2482-100), and 2 nM Eu-anti-Acetyl CoA Carboxylase [pSer70] antibody (Perkin Elmer, TRF0208-M). Plates were spun at 1000 RPM, 10 seconds.

T1 sequence (Q13131 whole entry): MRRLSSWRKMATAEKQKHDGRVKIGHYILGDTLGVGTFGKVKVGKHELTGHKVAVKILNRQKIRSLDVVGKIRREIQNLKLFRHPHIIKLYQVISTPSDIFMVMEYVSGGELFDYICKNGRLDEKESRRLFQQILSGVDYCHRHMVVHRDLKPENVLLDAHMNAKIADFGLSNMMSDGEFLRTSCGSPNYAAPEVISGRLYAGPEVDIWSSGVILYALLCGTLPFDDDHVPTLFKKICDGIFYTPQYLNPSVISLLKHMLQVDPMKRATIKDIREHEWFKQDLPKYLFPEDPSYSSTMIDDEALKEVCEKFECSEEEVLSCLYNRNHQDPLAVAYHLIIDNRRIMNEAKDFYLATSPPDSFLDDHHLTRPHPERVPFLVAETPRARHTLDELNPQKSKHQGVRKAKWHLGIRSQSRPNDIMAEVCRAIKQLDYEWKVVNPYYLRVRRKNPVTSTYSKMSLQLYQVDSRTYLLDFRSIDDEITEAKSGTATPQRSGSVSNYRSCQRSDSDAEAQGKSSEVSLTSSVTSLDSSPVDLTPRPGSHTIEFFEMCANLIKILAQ
T1 sequence (Q9Y478 whole entry): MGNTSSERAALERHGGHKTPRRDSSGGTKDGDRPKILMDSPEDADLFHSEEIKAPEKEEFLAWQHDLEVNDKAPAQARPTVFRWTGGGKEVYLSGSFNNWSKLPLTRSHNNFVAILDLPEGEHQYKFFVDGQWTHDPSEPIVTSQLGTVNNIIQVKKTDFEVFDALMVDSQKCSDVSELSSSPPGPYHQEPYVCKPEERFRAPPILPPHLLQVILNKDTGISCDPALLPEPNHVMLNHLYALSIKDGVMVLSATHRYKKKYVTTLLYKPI
T1 sequence (P54619 whole entry partner): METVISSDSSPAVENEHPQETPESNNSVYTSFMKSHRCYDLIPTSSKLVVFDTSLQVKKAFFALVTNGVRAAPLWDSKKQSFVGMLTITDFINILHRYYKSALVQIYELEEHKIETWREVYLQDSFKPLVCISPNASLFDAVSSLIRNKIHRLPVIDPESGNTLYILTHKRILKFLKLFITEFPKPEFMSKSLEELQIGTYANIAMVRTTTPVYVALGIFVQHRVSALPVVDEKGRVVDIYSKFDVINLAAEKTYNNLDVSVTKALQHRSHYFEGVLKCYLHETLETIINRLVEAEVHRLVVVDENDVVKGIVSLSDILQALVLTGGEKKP
T2 sequence (P54646 whole entry): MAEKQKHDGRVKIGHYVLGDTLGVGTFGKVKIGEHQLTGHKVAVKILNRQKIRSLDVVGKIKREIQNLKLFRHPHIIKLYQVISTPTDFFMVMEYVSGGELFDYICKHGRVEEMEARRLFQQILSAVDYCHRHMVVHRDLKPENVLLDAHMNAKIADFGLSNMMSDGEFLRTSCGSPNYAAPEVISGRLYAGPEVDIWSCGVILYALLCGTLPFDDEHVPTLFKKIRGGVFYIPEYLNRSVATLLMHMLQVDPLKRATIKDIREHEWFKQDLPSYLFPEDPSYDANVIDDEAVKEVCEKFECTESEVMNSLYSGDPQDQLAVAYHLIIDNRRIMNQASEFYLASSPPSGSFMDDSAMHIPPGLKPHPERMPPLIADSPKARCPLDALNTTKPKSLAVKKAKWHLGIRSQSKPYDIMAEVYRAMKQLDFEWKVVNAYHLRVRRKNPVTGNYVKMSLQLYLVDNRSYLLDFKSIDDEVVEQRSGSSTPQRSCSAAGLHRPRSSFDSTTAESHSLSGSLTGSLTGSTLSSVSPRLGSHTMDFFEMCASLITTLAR
T2 sequence (O43741 whole entry): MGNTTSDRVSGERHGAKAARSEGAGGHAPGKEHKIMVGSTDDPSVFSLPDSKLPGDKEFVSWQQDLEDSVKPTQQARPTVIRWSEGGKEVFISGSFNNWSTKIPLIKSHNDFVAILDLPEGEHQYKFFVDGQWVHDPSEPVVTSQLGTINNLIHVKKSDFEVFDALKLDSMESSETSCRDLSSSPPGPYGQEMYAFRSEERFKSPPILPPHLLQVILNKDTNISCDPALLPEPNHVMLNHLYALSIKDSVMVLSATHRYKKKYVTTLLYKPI
T2 sequence (P54619 whole entry partner): as the sequence (P54619 whole entry partner) above

Structure (SMILES) | EC50 (AMPK 111) [nM] | Emax (AMPK 111) [%] | EC50 (AMPK 221) [nM] | Emax (AMPK 221) [%]
O=C(O)CCc1n[nH]c2cc(Cl)c(-c3ccc(-c4ccccc4OC4OC(C(=O)O)C(O)C(O)C4O)cc3)cc12 (stereo not drawn) [Example 80, 6-((4′-(3-(2-carboxyethyl)-6-chloro-1H-indazol-5-yl)-[1,1′-biphenyl]-2-yl)oxy)-3,4,5-trihydroxytetrahydro-2H-pyran-2-carboxylic acid] | > 21100 | – | > 21100 | –
O=C(O)CCc1n[nH]c2cc(Cl)c(-c3ccc(-c4ccccc4O)cc3)nc12 [Example 73, 3-(6-chloro-5-(2′-hydroxy-[1,1′-biphenyl]-4-yl)-1H-pyrazolo[4,3-b]pyridin-3-yl)propanoic acid] | 26 | 86 | 2110 | 30
O=C(O)CNc1n[nH]c2cc(Cl)c(-c3ccc(-c4ccccc4O)cc3)cc12 [Example 19, (6-Chloro-5-(2′-hydroxy-[1,1′-biphenyl]-4-yl)-1H-indazol-3-yl)glycine] | 54 | 79 | 144 | 34
Cc1cccc(O)c1-c1ccc(-c2cc3c(CCCC(=O)O)n[nH]c3cc2Cl)cc1 [Example 75, 4-(6-chloro-5-(2′-hydroxy-6′-methyl-[1,1′-biphenyl]-4-yl)-1H-indazol-3-yl)butanoic acid] | 74 | 75 | 229 | 63
COc1cccc(-c2ccc(-c3cc4c(CCCC(=O)O)n[nH]c4cc3Cl)cc2)c1O [Example 74, 4-(6-chloro-5-(2′-hydroxy-3′-methoxy-[1,1′-biphenyl]-4-yl)-1H-indazol-3-yl)butanoic acid] | 92 | 80 | 66 | 69
Cc1cc(C)c(-c2ccc(-c3cc4c(CCC(=O)O)n[nH]c4cc3Cl)cc2)c(O)c1 [Example 18, 3-(6-chloro-5-(2′-hydroxy-4′,6′-dimethyl-[1,1′-biphenyl]-4-yl)-1H-indazol-3-yl)propanoic acid] | 12 | 84 | 96 | 64
O=C(O)CCc1n[nH]c2cc(Cl)c(-c3ccc(-c4ccc(OCCN5CCOCC5)cc4)cc3)cc12 [Example 38, 3-(6-chloro-5-(4′-(2-morpholinoethoxy)-[1,1′-biphenyl]-4-yl)-1H-indazol-3-yl)propanoic acid] | 95 | 67 | 209 | 64
Cc1cncc(O)c1-c1ccc(-c2cc3c(CCC(=O)O)n[nH]c3cc2Cl)cc1 [Example 27, 3-(6-chloro-5-(4-(3-hydroxy-5-methylpyridin-4-yl)phenyl)-1H-indazol-3-yl)propanoic acid] | 7 | 87 | 125 | 62
COc1ccc(C)c(-c2ccc(-c3cc4c(CCC(=O)O)n[nH]c4cc3Cl)cc2)c1O [Example 62, 3-(6-chloro-5-(2′-hydroxy-3′-methoxy-6′-methyl-[1,1′-biphenyl]-4-yl)-1H-indazol-3-yl)propanoic acid] | 25 | 72 | 14 | 57
O=C(O)CCc1n[nH]c2cc(Cl)c(-c3ccc(-c4csc(CO)c4)cc3)cc12 [Example 58, 3-(6-chloro-5-(4-(5-(hydroxymethyl)thiophen-3-yl)phenyl)-1H-indazol-3-yl)propanoic acid] | 215 | 76 | 573 | 57
CC(=O)N(C)c1ccc(-c2ccc(-c3cc4c(CCC(=O)O)n[nH]c4cc3Cl)cc2)cc1 [Example 39, 3-(6-chloro-5-(4′-(N-methylacetamido)-[1,1′-biphenyl]-4-yl)-1H-indazol-3-yl)propanoic acid] | 109 | 69 | 218 | 59
CC(=O)NCc1ccc(-c2ccc(-c3cc4c(CCC(=O)O)n[nH]c4cc3Cl)cc2)cc1 [Example 41, 3-(5-(4′-(acetamidomethyl)-[1,1′-biphenyl]-4-yl)-6-chloro-1H-indazol-3-yl)propanoic acid] | 70 | 66 | 235 | 65
NC(=O)Cc1ccc(-c2ccc(-c3cc4c(CCC(=O)O)n[nH]c4cc3Cl)cc2)cc1 [Example 30, 3-(5-(4′-(2-amino-2-oxoethyl)-[1,1′-biphenyl]-4-yl)-6-chloro-1H-indazol-3-yl)propanoic acid] | 36 | 80 | 173 | 65
O=C(O)CCc1c[nH]c2cc(Cl)c(-c3ccc(-c4ccccc4O)cc3)cc12 [Example 4, 3-(6-Chloro-5-(2′-hydroxy-[1,1′-biphenyl]-4-yl)-1H-indol-3-yl)propanoic acid] | 62 | 74 | 665 | 34
O=C(O)CCc1n[nH]c2cc(Cl)c(-c3ccc(-c4ccccc4)cc3)cc12 [Example 51, 3-(5-([1,1′-biphenyl]-4-yl)-6-chloro-1H-indazol-3-yl)propanoic acid] | 312 | 71 | 355 | 22
Cc1cscc1-c1ccc(-c2cc3c(CCC(=O)O)n[nH]c3cc2Cl)cc1 [Example 60, 3-(6-chloro-5-(4-(4-methylthiophen-3-yl)phenyl)-1H-indazol-3-yl)propanoic acid] | 241 | 53 | 532 | 21

The next lines start with the values.

EC50 (AMPK 111) [nM] | Emax (AMPK 111) [%] | EC50 (AMPK 221) [nM] | Emax (AMPK 221) [%] | Structure (SMILES)
203 | 76 | 617 | 48 | O=C(O)CCc1n[nH]c2cc(Cl)c(-c3ccc(-c4ccc(Cl)cc4O)cc3)cc12 [Example 64, 3-(6-chloro-5-(4′-chloro-2′-hydroxy-[1,1′-biphenyl]-4-yl)-1H-indazol-3-yl)propanoic acid]
90 | 71 | 359 | 57 | O=C(O)CCc1n[nH]c2cc(Cl)c(-c3ccc(-c4ccncc4O)cc3)cc12 [Example 7, 3-(6-Chloro-5-(4-(3-hydroxypyridin-4-yl)phenyl)-1H-indazol-3-yl)propanoic acid]
20 | 82 | 267 | 59 | O=C(O)CCc1n[nH]c2cc(Cl)c(-c3ccc(-c4c(O)cccc4Cl)cc3)cc12 [Example 46, 3-(6-chloro-5-(2′-chloro-6′-hydroxy-[1,1′-biphenyl]-4-yl)-1H-indazol-3-yl)propanoic acid]
281 | 56 | 565 | 64 | CSc1ccc(-c2ccc(-c3cc4c(CCC(=O)O)n[nH]c4cc3Cl)cc2)c(O)c1 [Example 63, 3-(6-chloro-5-(2′-hydroxy-4′-(methylthio)-[1,1′-biphenyl]-4-yl)-1H-indazol-3-yl)propanoic acid]
111 | 74 | 100 | 59 | O=C(O)CCc1n[nH]c2cc(Cl)c(-c3ccc(-c4cccc(F)c4O)cc3)cc12 [Example 22, 3-(6-chloro-5-(3′-fluoro-2′-hydroxy-[1,1′-biphenyl]-4-yl)-1H-indazol-3-yl)propanoic acid]
26 | 75 | 38 | 56 | NCc1ccc(-c2ccc(-c3cc4c(CCC(=O)O)n[nH]c4cc3Cl)cc2)c(O)c1 [Example 8, 3-(5-(4′-(Aminomethyl)-2′-hydroxy-[1,1′-biphenyl]-4-yl)-6-chloro-1H-indazol-3-yl)propanoic acid]
45 | 68 | 200 | 49 | O=C(O)CCc1n[nH]c2cc(Cl)c(-c3ccc(-c4ccc(C(=O)O)cc4O)cc3)cc12 [Example 36, 4′-(3-(2-carboxyethyl)-6-chloro-1H-indazol-5-yl)-2-hydroxy-[1,1′-biphenyl]-4-carboxylic acid]
16 | 82 | 97 | 61 | Cc1ccc(F)c(O)c1-c1ccc(-c2cc3c(CCC(=O)O)n[nH]c3cc2Cl)cc1 [Example 20, 3-(6-chloro-5-(3′-fluoro-2′-hydroxy-6′-methyl-[1,1′-biphenyl]-4-yl)-1H-indazol-3-yl)propanoic acid]
464 | 70 | 205 | 52 | CC(C)Oc1cccc(-c2ccc(-c3cc4c(CCC(=O)O)n[nH]c4cc3Cl)cc2)c1O [Example 37, 3-(6-chloro-5-(2′-hydroxy-3′-isopropoxy-[1,1′-biphenyl]-4-yl)-1H-indazol-3-yl)propanoic acid]
69 | 85 | 953 | 63 | O=C(O)CCc1n[nH]c2cc(Cl)c(-c3ccc(-c4c(Cl)ccc(F)c4O)cc3)cc12 [Example 67, 3-(6-chloro-5-(6′-chloro-3′-fluoro-2′-hydroxy-[1,1′-biphenyl]-4-yl)-1H-indazol-3-yl)propanoic acid]
